Reference: patent US9630922B2, “3-spiro-7-hydroxamic acid tetralins as HDAC inhibitors” (Forma Therapeutics, Inc., priority 2015, dated 2017)

target: T1, HDAC6 (Homo sapiens, UniProt Q9UBN7); assay: In vitro Histone Deacetylase Assay (enzymatic HDAC6 electrophoretic mobility shift assay); assay type: biochemical; details: full length human recombinant HDAC6, 1 nM enzyme, 2 μM peptide substrate RHKK(Ac)-NH2, 25° C.; read-out: HDAC6 activity range
T1 construct: Full length human recombinant HDAC6 protein was expressed in baculoviral system; made in house; host or cells: baculoviral system
T1 sequence (Q9UBN7 1-1215): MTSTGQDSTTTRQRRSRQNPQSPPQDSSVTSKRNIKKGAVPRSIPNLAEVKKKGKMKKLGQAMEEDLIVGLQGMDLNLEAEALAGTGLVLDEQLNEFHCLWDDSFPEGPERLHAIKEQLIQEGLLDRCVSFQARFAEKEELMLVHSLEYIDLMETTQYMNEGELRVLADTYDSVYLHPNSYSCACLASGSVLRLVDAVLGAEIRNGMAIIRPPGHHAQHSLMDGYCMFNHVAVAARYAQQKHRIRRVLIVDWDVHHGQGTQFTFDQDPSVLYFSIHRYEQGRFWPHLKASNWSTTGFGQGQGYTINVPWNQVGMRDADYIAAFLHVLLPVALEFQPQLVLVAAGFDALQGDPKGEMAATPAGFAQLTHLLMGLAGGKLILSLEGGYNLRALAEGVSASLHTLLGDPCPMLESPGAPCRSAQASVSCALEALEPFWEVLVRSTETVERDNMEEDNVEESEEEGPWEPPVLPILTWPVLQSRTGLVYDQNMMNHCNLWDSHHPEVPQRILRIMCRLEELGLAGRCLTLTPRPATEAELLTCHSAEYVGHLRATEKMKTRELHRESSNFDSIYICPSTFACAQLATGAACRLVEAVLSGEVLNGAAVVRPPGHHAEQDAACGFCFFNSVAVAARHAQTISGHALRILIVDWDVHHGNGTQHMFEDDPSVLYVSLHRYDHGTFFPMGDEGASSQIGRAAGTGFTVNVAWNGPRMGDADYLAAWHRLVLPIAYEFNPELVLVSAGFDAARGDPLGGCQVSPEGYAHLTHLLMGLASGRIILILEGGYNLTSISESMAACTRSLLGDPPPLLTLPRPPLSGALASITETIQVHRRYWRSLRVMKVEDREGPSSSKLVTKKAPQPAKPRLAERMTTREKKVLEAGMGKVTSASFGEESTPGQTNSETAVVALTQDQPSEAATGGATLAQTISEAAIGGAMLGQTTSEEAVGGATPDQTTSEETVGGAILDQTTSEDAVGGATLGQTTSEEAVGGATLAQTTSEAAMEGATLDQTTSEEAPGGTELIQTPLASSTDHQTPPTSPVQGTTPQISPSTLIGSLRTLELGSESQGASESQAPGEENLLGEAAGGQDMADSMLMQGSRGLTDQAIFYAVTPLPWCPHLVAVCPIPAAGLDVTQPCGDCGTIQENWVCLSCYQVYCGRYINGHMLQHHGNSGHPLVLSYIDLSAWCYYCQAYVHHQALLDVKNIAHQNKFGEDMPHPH
Outline: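 Full-length recombinant human HDAC6 (baculovirus-expressed, 1 nM) was incubated at 25 °C with 2 μM fluorescent RHKK(Ac)-NH2 peptide in HEPES pH 7.5, KCl, BSA, Triton X-100 and 1% DMSO, then SDS-quenched. Substrate and product were separated by microfluidic mobility shift, and IC50 came from 4-parameter fits of 12-point, 3-fold dilution curves.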

IC50 [nM] | Structure (SMILES)
≤ 100 | C=C(C)CN1CC[C@]2(CCc3cc(C(=O)NO)ccc3C2)C1=O [Compound I-47, (R)-N-hydroxy-1′-(2-methylallyl)-2′-oxo-3,4-dihydro-1H-spiro[naphthalene-2,3′-pyrrolidine]-6-carboxamide]
≤ 100 | O=C(NO)c1ccc2c(c1)CC[C@]1(CCN(Cc3cc(Cl)ccc3Cl)C1=O)C2 [Compound I-48, (R)-1′-(2,5-dichlorobenzyl)-N-hydroxy-2′-oxo-3,4-dihydro-1H-spiro[naphthalene-2,3′-pyrrolidine]-6-carboxamide]
≤ 100 | O=C(NO)c1ccc2c(c1)CC[C@]1(CCN(Cc3c(Cl)cccc3Cl)C1=O)C2 [Compound I-49, (R)-1′-(2,6-dichlorobenzyl)-N-hydroxy-2′-oxo-3,4-dihydro-1H-spiro[naphthalene-2,3′-pyrrolidine]-6-carboxamide]
≤ 100 | O=C(NO)c1ccc2c(c1)CC[C@]1(CCN(Cc3ccccc3)C1=O)C2 [Compound I-50, (R)-1′-benzyl-N-hydroxy-2′-oxo-3,4-dihydro-1H-spiro[naphthalene-2,3′-pyrrolidine]-6-carboxamide]
≤ 100 | COc1cccc(CN2CC[C@]3(CCc4cc(C(=O)NO)ccc4C3)C2=O)c1 [Compound I-51, (R)-N-hydroxy-1′-(3-methoxybenzyl)-2′-oxo-3,4-dihydro-1H-spiro[naphthalene-2,3′-pyrrolidine]-6-carboxamide]
≤ 100 | O=C(NO)c1ccc2c(c1)CC[C@]1(CCN(Cc3ccccn3)C1=O)C2 [Compound I-52, (R)-N-hydroxy-2′-oxo-1′-(pyridin-2-ylmethyl)-3,4-dihydro-1H-spiro[naphthalene-2,3′-pyrrolidine]-6-carboxamide]
≤ 100 | O=C(NO)c1ccc2c(c1)CC[C@]1(CCN(Cc3cccc(F)c3)C1=O)C2 [Compound I-53, (R)-1′-(3-fluorobenzyl)-N-hydroxy-2′-oxo-3,4-dihydro-1H-spiro[naphthalene-2,3′-pyrrolidine]-6-carboxamide]
≤ 100 | O=C(NO)c1ccc2c(c1)CC[C@]1(CCN(Cc3cccc(Cl)c3)C1=O)C2 [Compound I-54, (R)-1′-(3-chlorobenzyl)-N-hydroxy-2′-oxo-3,4-dihydro-1H-spiro[napthalene-2,3′-pyrrolidine]-6-carboxamide]
≤ 100 | O=C(NO)c1ccc2c(c1)CC[C@]1(CCN(Cc3ccc(Cl)cc3)C1=O)C2 [Compound I-55, (R)-1′-(4-chlorobenzyl)-N-hydroxy-2′-oxo-3,4-dihydro-1H-spiro[naphthalene-2,3′-pyrrolidine]-6-carboxamide]
≤ 100 | COc1ccc(CN2CC[C@]3(CCc4cc(C(=O)NO)ccc4C3)C2=O)cc1 [Compound I-56, (R)-N-hydroxy-1′-(4-methoxybenzyl)-2′-oxo-3,4-dihydro-1H-spiro[naphthalene-2,3′-pyrrolidine]-6-carboxamide]
≤ 100 | O=C(NO)c1ccc2c(c1)CC[C@]1(CCN(Cc3ccccc3F)C1=O)C2 [Compound I-57, (R)-1′-(2-fluorobenzyl)-N-hydroxy-2′-oxo-3,4-dihydro-1H-spiro[naphthalene-2,3′-pyrrolidine]-6-carboxamide]
≤ 100 | O=C(NO)c1ccc2c(c1)CC[C@]1(CCN(Cc3ccc4ccccc4c3)C1=O)C2 [Compound I-58, (R)-N-hydroxy-1′-(naphthalen-2-ylmethyl)-2′-oxo-3,4-dihydro-1H-spiro[naphthalene-2,3′-pyrrolidine]-6-carboxamide]
≤ 100 | O=C(NO)c1ccc2c(c1)CC[C@]1(CCN(Cc3ccccc3OC(F)F)C1=O)C2 [Compound I-59, (R)-1′-(2-(difluoromethoxy)benzyl)-N-hydroxy-2′-oxo-3,4-dihydro-1H-spiro[naphthalene-2,3′-pyrrolidine]-6-carboxamide]
100 to 500 | CCCN1CC[C@@]2(CCc3cc(C(=O)NO)ccc3C2)C1=O [Compound I-60, (S)-N-hydroxy-2′-oxo-1′-propyl-3,4-dihydro-1H-spiro[naphthalene-2,3′-pyrrolidine]-6-carboxamide]
100 to 500 | O=C(NO)c1ccc2c(c1)CC[C@@]1(CCN(CC3CCC3)C1=O)C2 [Compound I-61, (S)-1′-(cyclobutylmethyl)-N-hydroxy-2′-oxo-3,4-dihydro-1H-spiro[naphthalene-2,3′-pyrrolidine]-6-carboxamide]
100 to 500 | CC(C)CCN1CC[C@@]2(CCc3cc(C(=O)NO)ccc3C2)C1=O [Compound I-62, (S)-N-hydroxy-1′-isopentyl-2′-oxo-3,4-dihydro-1H-spiro[naphthalene-2,3′-pyrrolidine]-6-carboxamide]
≤ 100 | CC#CCN1CC[C@@]2(CCc3cc(C(=O)NO)ccc3C2)C1=O [Compound I-63, (S)-1′-(but-2-yn-1-yl)-N-hydroxy-2′-oxo-3,4-dihydro-1H-spiro[naphthalene-2,3′-pyrrolidine]-6-carboxamide]
100 to 500 | COCCN1CC[C@@]2(CCc3cc(C(=O)NO)ccc3C2)C1=O [Compound I-64, (S)-N-hydroxy-1′-(2-methoxyethyl)-2′-oxo-3,4-dihydro-1H-spiro[naphthalene-2,3′-pyrrolidine]-6-carboxamide]
≤ 100 | O=C(NO)c1ccc2c(c1)CC[C@@]1(CCN(C/C=C/c3ccccc3)C1=O)C2 [Compound I-65, (S)-1′-cinnamyl-N-hydroxy-2′-oxo-3,4-dihydro-1H-spiro[naphthalene-2,3′-pyrrolidine]-6-carboxamide]
≤ 100 | Cc1ccccc1CN1CC[C@@]2(CCc3cc(C(=O)NO)ccc3C2)C1=O [Compound I-66, (S)-N-hydroxy-1′-(2-methylbenzyl)-2′-oxo-3,4-dihydro-1H-spiro[naphthalene-2,3′-pyrrolidine]-6-carboxamide]
100 to 500 | O=C(NO)c1ccc2c(c1)CC[C@@]1(CCN(Cc3ccccc3C(F)(F)F)C1=O)C2 [Compound I-67, (S)-N-hydroxy-2′-oxo-1′-(2-(trifluoromethyl)benzyl)-3,4-dihydro-1H-spiro[naphthalene-2,3′-pyrrolidine]-6-carboxamide]
100 to 500 | O=C(NO)c1ccc2c(c1)CC[C@@]1(CCN(Cc3ccccc3Cl)C1=O)C2 [Compound I-68, (S)-1′-(2-chlorobenzyl)-N-hydroxy-2′-oxo-3,4-dihydro-1H-spiro[naphthalene-2,3′-pyrrolidine]-6-carboxamide]
100 to 500 | O=C(NO)c1ccc2c(c1)CC[C@@]1(CCN(Cc3ccccc3OC(F)(F)F)C1=O)C2 [Compound I-69, (S)-N-hydroxy-2′-oxo-1′-(2-(trifluoromethoxy)benzyl)-3,4-dihydro-1H-spiro[naphthalene-2,3′-pyrrolidine]-6-carboxamide]
≤ 100 | O=C(NO)c1ccc2c(c1)CC[C@@]1(CCN(Cc3ccc4nonc4c3)C1=O)C2 [Compound I-70, (S)-1′-(benzo[c][1,2,5]oxadiazol-5-ylmethyl)-N-hydroxy-2′-oxo-3,4-dihydro-1H-spiro[naphthalene-2,3′-pyrrolidine]-6-carboxamide]
100 to 500 | O=C(NO)c1ccc2c(c1)CC[C@@]1(CCN(CC(=O)N3CCOCC3)C1=O)C2 [Compound I-71, (S)-N-hydroxy-1′-(2-morpholino-2-oxoethyl)-2′-oxo-3,4-dihydro-1H-spiro[naphthalene-2,3′-pyrrolidine]-6-carboxamide]
≤ 100 | COc1ccccc1CN1CC[C@@]2(CCc3cc(C(=O)NO)ccc3C2)C1=O [Compound I-72, (S)-N-hydroxy-1′-(2-methoxybenzyl)-2′-oxo-3,4-dihydro-1H-spiro[naphthalene-2,3′-pyrrolidine]-6-carboxamide]
≤ 100 | CC(C)n1c(CN2CC[C@@]3(CCc4cc(C(=O)NO)ccc4C3)C2=O)nc2ccccc21 [Compound I-73, (S)-N-hydroxy-1′-((1-isopropyl-1H-benzo[d]imidazol-2-yl)methyl)-2′-oxo-3,4-dihydro-1H-spiro[naphthalene-2,3′-pyrrolidine]-6-carboxamide]
